For series [1], the target named is T1, Na—H exchange (Rattus norvegicus, UniProt P26431).
T1 construct: The blood was centrifuged at 3000 rpm for 5 seconds to obtain platelet rich plasma (PRP); from tissue; host or cells: platelets in platelet rich plasma from abdominal aortic blood of male Wistar rats
The series can be described thus: Rat platelet swelling in sodium propionate solution (light transmittance of PRP), inhibition of Na—H exchange. In kind it is cell-based. The settings on record: 1 min, test compound 10^−7 M; rat platelet rich plasma; value 1 minute after sodium propionate solution; 100% = difference between 1% DMSO and HOE-642 (10^−5M); read-out: Inhibition Rate (%) [10^−7 M]. The protocol: Male Wistar rats (350-450 g) were anesthetized with sodium pentobarbital (50 mg/kg, i.p.). Using a disposable syringe pre-filled with 1.5 ml of 3.8% citric acid solution, 8.5 ml of blood was collected from the abdominal aorta. The blood was centrifuged at 3000 rpm for 5 seconds to obtain platelet rich plasma (PRP). The number of platelets in the PRP was counted by an automatic hemocytometer (Sysmex 2500, TOA Medical Electronics). The PRP was diluted with physiological saline to make the concentration of 40×10^4 platelets per 1 μl. A platelet aggregometer (Hematoracer, Niko Bioscience) was used for measurement of the platelet swelling. 200 μl of the PRP was poured into a cuvette and 600 μl of sodium propionate solution (Na propionate 135, glucose 10, Hepes 20, CaCl2 1, MgCl2 1; Units: mM; pH6.7) was added while stirring at 37° C. The change in the light transmittance of PRP which was an indicator of the platelet swelling was recorded on a plotter. The test compound was added 3 minutes before addition of the sodium propionate solution. The test compounds were dissolved in dimethylsulfoxide (DMSO).

The term inhibition denotes the share of the control response that was lost under treatment. Usually melting point stands for the temperature of the solid-liquid transition.

T1 sequence (P26431 whole entry): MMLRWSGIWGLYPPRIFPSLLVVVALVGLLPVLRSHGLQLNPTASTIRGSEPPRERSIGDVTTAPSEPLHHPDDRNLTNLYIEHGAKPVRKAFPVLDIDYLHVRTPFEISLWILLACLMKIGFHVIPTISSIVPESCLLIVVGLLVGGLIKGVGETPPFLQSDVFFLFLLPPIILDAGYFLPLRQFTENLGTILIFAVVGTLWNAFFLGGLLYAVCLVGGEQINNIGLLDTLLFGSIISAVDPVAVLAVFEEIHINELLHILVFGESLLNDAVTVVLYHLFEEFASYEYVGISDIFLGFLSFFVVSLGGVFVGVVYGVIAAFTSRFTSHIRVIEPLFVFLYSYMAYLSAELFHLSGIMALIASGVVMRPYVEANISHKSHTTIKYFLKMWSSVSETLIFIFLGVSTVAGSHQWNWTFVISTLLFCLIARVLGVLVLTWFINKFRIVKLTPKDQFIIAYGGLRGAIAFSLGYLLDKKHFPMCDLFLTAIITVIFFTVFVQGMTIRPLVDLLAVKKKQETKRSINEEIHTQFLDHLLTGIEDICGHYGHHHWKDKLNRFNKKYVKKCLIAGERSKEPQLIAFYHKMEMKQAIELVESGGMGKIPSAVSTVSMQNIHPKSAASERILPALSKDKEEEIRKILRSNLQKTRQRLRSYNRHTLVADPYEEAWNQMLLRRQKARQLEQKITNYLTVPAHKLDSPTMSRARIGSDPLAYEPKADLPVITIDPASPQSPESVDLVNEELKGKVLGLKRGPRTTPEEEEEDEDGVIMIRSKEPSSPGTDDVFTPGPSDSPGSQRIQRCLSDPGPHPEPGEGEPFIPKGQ

For the molecule `CCc1n[nH]c2c1C(=NNC(=N)N)CC(c1ccccc1Cl)C2.Cl` (stereo not drawn) [Compound 27, 6-(2-chlorophenyl)-3-ethyl-4-guanidinoimino-4,5,6,7-tetrahydroindazole hydrochloride], the melting point lay within 196 to 200 °C. Also, in series [1], the inhibition at 0.1 µM worked out at 76%.
The corresponding values for `Cc1ccccc1C1CC(=NNC(=N)N)c2c(C)c[nH]c2C1.Cl` (stereo not drawn) [Compound 6, 4-guanidinoimino-3-methyl-6-(2-methylphenyl)-4,5,6,7-tetrahydroindole hydrochloride] are 187 °C (dec.) and 86%.
In turn, `Cc1ccnc2c1C(=NNC(=N)N)CC(c1ccsc1Br)C2.Cl` (stereo not drawn) [Compound 123, 7-(2-bromothiophen-3-yl)-5-guanidinoimino-4-methyl-5,6,7,8-tetrahydroquinoline hydrochloride] displayed a melting point of 243 to 245 °C. Moreover, in series [1], the inhibition at 0.1 µM was 81%.
The corresponding values for `Cc1n[nH]c2c1C(=NNC(=N)N)CC(c1sccc1Cl)C2.Cl` (stereo not drawn) [Compound 119, 6-(3-chloro-2-thienyl)-4-guanidinoimino-3-methyl-4,5,6,7-tetrahydroindazole hydrochloride] are 204 °C (dec.) and 100%.
For `Cc1cnnc2c1C(=NNC(=N)N)CC(c1cc(Cl)sc1Cl)C2.Cl` (stereo not drawn) [Compound 131, 7-(2,5-dichlorothiophen-3-yl)-5-guanidinoimino-4-methyl-5,6,7,8-tetrahydrocinnoline hydrochloride] the same measures were no less than 300 °C and 88%.
Turning to `CS(=O)(=O)O.Cc1ccnc2c1C(=NNC(=N)N)CC(c1cc(Cl)sc1Cl)C2` (single isomer, unassigned; (-)) [Compound 113, (−)-7-(2,5-dichlorothiophen-3-yl)-5-guanidinoimino-4-methyl-5,6,7,8-tetrahydroquinoline methanesulfonate], the melting point was in the range of 229 to 231 °C. The inhibition at 0.1 µM in series [1] was found to be 100%.
For `CCc1cnnc2c1C(=NNC(=N)N)CC(c1ccccc1Cl)C2.CS(=O)(=O)O` (stereo not drawn) [Compound 133, 7-(2-chlorophenyl)-5-guanidinoimino-4-ethyl-5,6,7,8-tetrahydrocinnoline methanesulfonate] the same measures were 244 to 245 °C (dec.) and 87%.
For `Cc1n[nH]c2c1C(=NNC(=N)NO)CC(c1ccccc1Cl)C2.Cl` (stereo not drawn) [Compound 93, 6-(2-chlorophenyl)-4-(1-hydroxyguanidin-3-yl)imino-3-methyl-4,5,6,7-tetrahydroindazole hydrochloride] the same measures were 234 to 235 °C (dec.) and 69%.
The corresponding values for `COc1ccnc2c1C(=NNC(=N)N)CC(c1ccccc1Cl)C2.CS(=O)(=O)O` (stereo not drawn) [Compound 79, 7-(2-chlorophenyl)-5-guanidinoimino-4-methoxy-5,6,7,8-tetrahydroquinoline methanesulfonate] are 158 to 159 °C and 77%.
As for `Cc1ccsc1C1CC(=NNC(=N)N)c2c(C)ccnc2C1.Cl` (stereo not drawn) [Compound 73, 5-guanidinoimino-4-methyl-7-(3-methyl-2-thienyl)-5,6,7,8-tetrahydroquinoline hydrochloride], the melting point was 184 to 187 °C. Moreover, the inhibition at 0.1 µM in series [1] is 76%.
Turning to `Cc1n[nH]c2c1C(=NNC(=N)NO)CC(c1cc(Cl)sc1Cl)C2.Cl` (stereo not drawn) [Compound 128, 6-(2,5-dichlorothiophen-3-yl)-4-(1-hydroxyguanidin-3-yl)imino-3-methyl-4,5,6,7-tetrahydroindazole hydrochloride], the melting point was 190 to 192 °C (dec.). Besides, the inhibition at 0.1 µM in series [1] was 78%.
The corresponding values for `Cc1n[nH]c2c1C(=NNC(=N)N)CC(c1cc(Cl)sc1Cl)C2.Cl` (stereo not drawn) [Compound 127, 6-(2,5-dichlorothiophen-3-yl)-4-guanidinoimino-3-methyl-4,5,6,7-tetrahydroindazole hydrochloride] are no less than 300 °C and 98%.

The record behind these values is US6350749B1, “Aminoguanidine hydrazone derivatives, process for producing the same and drugs thereof” (Takeda Chemical Industries, Ltd., priority 1998, dated 2002).
